Test results from patent publication US20160120915A1, “METHODS FOR MANIPULATING IMMUNE RESPONSES BY ALTERING MICROBIOTA” (NEW YORK UNIVERSITY, priority 2013, published 2016).

How the values were obtained:
Type in all cases: in vivo, C57BL/6J mice
[1] = tested on: CD3+CD4+ lamina propria lymphocytes; assay: Flow cytometry of lamina propria lymphocytes for Th17-produced cytokines, 8-week STAT; conditions: small and large intestine, STAT vs control
Source text: Lamina propria lymphocytes (LPL) from both small and large intestine were isolated from 8-week STAT mice (Control n=4, STAT n=4) and analyzed for intracellular, Th17-produced cytokines by flow cytometry. Plots gated on CD3+CD4+LPL. IL-17^+ and IL-22^+ cells were decreased in STAT compared to control mice in both the small and large intestine (FIG. 5).
Small and large intestines of mice were dissected, and all mesenteric fat and Peyer's patches were removed. Intestines were fileted for removal of stool, cut into 2 cm pieces, and washed with PBS. Tissues were transferred to tubes with 10 ml 1 mM DTT/PBS, shaken at RT for 10 minutes, and transferred to tubes with 30 mM EDTA and 10 mM HEPES in PBS. Intestines were then shaken at 37° C. for 20 minutes and washed in complete RPMI. The small and large intestines were digested at 37 C for 1.5 hours in 100 units/ml collagenase Type VIII (Sigma) and 150 μg/ml DNase (Sigma) in complete RPMI. Cells were filtered through a 50 micron filter, washed with 5 ml PBS, and pelleted. Cells were then resuspended in 40% Percoll (GE Healthcare), under-layed with 80% Percoll, and centrifuged at 2,200 rpm for 20 min at RT. […]
Cells were stimulated with phorbol 12-myristate 13-acetate (PMA) and ionomycin for 4 hours at 37 C with the addition of GolgiPlug (BD). […] Cells were acquired on an LSRII (BD) and analyzed with FlowJo (Tree Star, Inc.) software.

ileum = assay: EarlySTAT: ileal gene expression by qPCR in 4- and 8-week mice; conditions: STAT vs control
Source text: C57BL/6J (Jackson Labs, Bar Harbor, Me.) mice either received no antibiotics (control) or continuous STAT penicillin. Mice were weaned at 4 weeks onto normal chow (13.2% fat, 5053 PicoLab Rodent Diet 20, LabDiet, Brentwood, Mo.), then switched to a high fat diet (45% kcal from fat, D12451, Research Diets, New Brunswick, N.J.) at 6 weeks of life. Mice were sacrificed at 4, 8, and 18 weeks of age. The terminal[1 cm] ileum without Peyer's Patches [TI-] was collected for gene expression analysis by qPCR. The proximal 1 cm of ileum was used for histological analysis of tissue structure, and the remaining ileum was used to determine immunity phenotypes by flow cytometry.
C57BL6J mice were exposed to sub-therapeutic antibiotic treatment (STAT) with penicillin via their drinking water from birth, or no antibiotics (Control). Mice were fed a normal diet until 6 weeks of age, then they were fed high fat diet. 5 mice from each experimental group were sacrificed at 4 weeks, and 4 mice from each group were sacrificed at 8 weeks. The terminal[1 cm] ileum without Peyer's Patches [TI-] was collected for gene expression analysis by qPCR. The proximal 1 cm of ileum was used for histological analysis of tissue structure, and the remaining ileum was used to determine immunity phenotypes by flow cytometry. Ileal gene expression was also measured by microarray and the nCounter GX Mouse Immunology Kit (Nanostring Technologies, Seattle, Wash., USA).
Total RNA was extracted from mouse tissues using the RNeasy Mini Kit (Qiagen), according to the manufacturer's instructions. Total RNA was reverse transcribed to cDNA using the Verso™ cDNA Synthesis Kit (Thermo Scientific). To generate standards for expression analysis of each target gene, the cDNA region of interest was PCR-amplified and the PCR product was cloned into pGEM-T easy (Promega). qPCR was performed with LightCycler 480 SYBR Green I Master mix (Roche) and run in a LightCycler 480 system (Roche). Target mRNA was normalized to GAPDH mRNA as an internal control in each sample.
Ileal expression of T-bet [Th1], GATA3 [Th2], Foxp3 [Treg], and RORγt [Th17] (FIG. 4A), and IFNγ [Th1], IL-4 [Th2], TGFβ1 [Treg], and IL-17 [Th17] (FIG. 4B) (4-week; Control, n=4, STAT, n=5, 8-week; Control, n=3, STAT, n=4) was quantitated by qPCR and normalized by GAPDH expression. […] These studies provide evidence that low dose antibiotic exposure can be used to change immune effector T-cell populations and the effector molecules they produce.
Ileal expression of defensin β1, Reg3γ, and Relmβ (4-week; Control n=4, STAT n=5, 8-week; Control n=3, STAT n=4) was quantitated by qPCR and normalized by GAPDH expression. […] These findings provide examples of how the STAT exposure changed intestinal expression of antimicrobial peptide genes.
Ileal expression of the IgA J-chain, polymeric Ig receptor (pIgR), both related to polymeric IgA function, and TLR2 and TLR4 was quantitated by qPCR and normalized by GAPDH expression in 4- and 8-week STAT [4-week; Control n=3, STAT n=4, 8-week; Control n=3, STAT n=4].

ileal tissue structure = assay: Ileal atrophy scoring in H&E stained ileum; conditions: 4-week old mice, n=5 each, p<0.05 Mann-Whitney U, vs control
Source text: Atrophy was scored in hematoxylin and eosin (H&E) stained ileum samples from 4-week old control and STAT mice (n=5 each).
Ileal tissues from 4-week-old control and STAT mice were formalin fixed and paraffin embedded, cut, and stained with hemotoxylin and eosin (H&E). 4 slides were scored for ileal atrophy per mouse and the average score per mouse was averaged.

[2] = 4- and 8-week, qPCR and microarray

With CC1(C)S[C@@H]2[C@H](NC(=O)COc3ccccc3)C(=O)N2[C@H]1C(=O)[O-].[K+] [STAT, penicillin VK] as the compound, how does the “IL-17+ cells among CD3+CD4+ LPL” value [1] read?
The value was “decreased”.

And the “IL-22+ cells among CD3+CD4+ LPL” value [1]?
Its value is “decreased”.

And the “expression of all four transcription factors (T-bet, GATA3, Foxp3, RORγt)” value (ileum; 4- and 8-week mice)?
The value was “trended downwards”.

And the “ileal B cell markers (IgA J-chain, pIgR)” value (ileum; [2])?
The value was “significantly down-regulated”.

What about the “ileal TLRs (TLR2, TLR4)” value (ileum; [2]) of the same compound?
The value was “downward trend”.

What about the “ileal expression of IL-17 [Th17]” value (ileum; at 4- and 8-weeks, p<0.05) of the same compound?
The value was “significantly down-regulated”.

And the “ileal expression of RORγt [Th17]” value (ileum; at 4- and 8-weeks, p<0.05)?
The value was “significantly down-regulated”.

What about the “ileal expression of T-bet [Th1]” value (ileum; at 4- and 8-weeks, p<0.05) of the same compound?
The value was “significantly down-regulated”.

And the “ileal expression of IFNγ [Th1]” value (ileum; at 4-weeks, p<0.05)?
The value was “significantly down-regulated”.

What about the “ileal Relmβ expression” value (ileum; at 4 weeks, p<0.05) of the same compound?
The value was “significantly lower”.

And the “ileal expression of GATA3 [Th2]” value (ileum; at 8-weeks, p<0.05)?
The value was “significantly down-regulated”.

What about the “ileal expression of TGFβ1 [Treg]” value (ileum; at 8-weeks, p<0.05) of the same compound?
Its value is “significantly down-regulated”.

And the “ileal expression of all three antimicrobial peptides (defensin β1, Reg3γ, Relmβ)” value (ileum; at 8 weeks, p<0.05)?
The value was “significantly lower”.

And the ileal atrophy (ileal tissue structure)?
The ileal atrophy was “significantly more”.
